Laboratory results taken from patent US6441169B1, “Pyrimidin-2-oxy-4-one and pyrimidin-2-oxy-4-thione derivatives” (Syngenta Crop Protection, Inc., priority 1997, dated 2002).

Columns and labels:
[1] = tested on: Colletotrichum lagenarium; assay: B-2 Action against Colletotrichum lagenarium on cucumbers; type: in vivo; conditions: cucumber plants; spray concentration 0.002%; infected 2 days later; evaluation 8 days after infection
Method: Action Against Colletotrichum lagenarium on Cucumbers After a growth period of 2 weeks, cucumber plants are sprayed with an aqueous spray mixture (concentration 0.002%) prepared from a wettable powder formulation of the test compound and infected 2 days later with a spore suspension (1.5×10^5 spores/ml) of the fungus and incubated for 36 hours at 23° C. and high humidity. Incubation is then continued at normal humidity and c. 22° C. Evaluation of the fungal infestation is made 8 days after infection.

[2] = tested on: Puccinia graminis; type: in vivo; conditions: wheat plants; a) spray 0.02% active ingredient, infected 24 hours later; b) soil drench 0.006% a.i., infected after 48 hours; evaluation 12 days after infection
[3] = tested on: Venturia inaegualis; assay: B-3 Residual-protective action against Venturia inaegualis on apples; type: in vivo; conditions: apple cuttings; spray 0.02% a.i.; infected 24 hours later; evaluation 12 days after infection
Method: Residual-protective Action Against Venturia inaegualis on Apples Apple cuttings with fresh shoots 10 to 20 cm long are sprayed to drip point with a spray mixture (0.02% a.i.) prepared from a wettable powder formulation of the test compound. The plants are infected 24 hours later with a conidia suspension of the fungus. The plants are then incubated for 5 days at 90 to 100% relative humidity and stood in a greenhouse for a further 10 days at 20 to 24° C. Evaluation of the fungal infestation is made 12 days after infection.

SMILES	activity against Colletotrichum lagenarium (fungal infestation) [1]	activity against Puccinia graminis (fungal infestation) [2]	activity against Venturia inaegualis (fungal infestation) [3]	melting point [°C]
CCCn1c(OCC2(C)CC2)nc2sc(Br)cc2c1=O [Compound 3.7, 6-bromo-2-(1-methylcyclopropylmethoxy)-3-n-propyl-3H-thieno[2.3-d]pyrimidin-4-one]	good to excellent activity	good to excellent activity	good activity	–
CCCn1c(OCC2CC2(F)F)nc2sc(Br)cc2c1=O (centres unmarked) [Compound 3.52]	good to excellent activity	good to excellent activity	good activity	–
CCCn1c(OCC2CC2C)nc2c(Br)csc2c1=O (centres unmarked) [Compound 4.23]	good to excellent activity	good to excellent activity	good activity	–
CCCn1c(OCC2CC2C)nc2sc(Cl)cc2c1=O (centres unmarked) [Compound 3.21, 6-chloro-2-(2-methylcyclopropylmethoxy)-3-n-propyl-3H-thieno[2.3-d]pyrimidin-4-one]	good to excellent activity	good to excellent activity	good activity	–
CCCn1c(OCC2(C)CC2)nc2sc(Cl)cc2c1=O [Compound 3.6, 6-chloro-2-(1-methylcyclopropylmethoxy)-3-n-propyl-3H-thieno[2.3-d]pyrimidin-4-one]	good to excellent activity	good to excellent activity	good activity	–
CCCn1c(OCC2CC2C)nc2sc(Br)cc2c1=O (centres unmarked) [Compound 3.22, 6-bromo-2-(2-methylcyclopropylmethoxy)-3-n-propyl-3H-thieno[2.3-d]pyrimidin-4-one]	good to excellent activity	good to excellent activity	good activity	–
CCCn1c(OCC2(C)CC2)nc2ccc(Br)cc2c1=O [Compound 1.7, 6-bromo-2-(1-methylcyclopropylmethoxy)-3-n-propyl-3Hquinazoline-4-one]	good to excellent activity	good to excellent activity	good activity	81 to 85
CCCn1c(OCC2CC2(F)F)nc2sc(Cl)cc2c1=O (centres unmarked) [Compound 3.51]	good to excellent activity	good to excellent activity	good activity	–
CCCCn1c(OCC2(C)CC2)nc2ccc(Br)cc2c1=O [Compound 1.10, 6-bromo-2-(1-methylcyclopropylmethoxy)-3-n-buyl-3H-quinazoline-4-one]	good to excellent activity	good to excellent activity	good activity	–
CCCn1c(OCC2CC2(Cl)Cl)nc2ccc(Br)cc2c1=O (centres unmarked) [Compound 1.37]	good to excellent activity	good to excellent activity	good activity	–
CCCn1c(OCC2CC2(Cl)Cl)nc2sc(Cl)cc2c1=O (centres unmarked) [Compound 3.36, 6-chloro-2-(2,2-Dichlorocyclopropylmethoxy)-3-n-propyl-3H-thieno-[2.3-d]pyrimidin-4-one]	good to excellent activity	good to excellent activity	good activity	–
CCCn1c(OCC2(C)CC2)nc2c(Br)csc2c1=O [Compound 4.8]	good to excellent activity	good to excellent activity	good activity	–
CC1(COc2nc3ccc(Br)cc3c(=O)n2CC2CC2)CC1 [Compound 1.15]	good to excellent activity	good to excellent activity	good activity	–
CCCCn1c(OCC2CC2C)nc2ccc(Br)cc2c1=O (centres unmarked) [Compound 1.25, 6-bromo-2-(2-methylcyclopropylmethoxy)-3-n-buyl-3H-quinazoline-4-one]	good to excellent activity	good to excellent activity	good activity	–
CC1CC1COc1nc2ccc(Br)cc2c(=O)n1CC1CC1 (centres unmarked) [Compound 1.30]	good to excellent activity	good to excellent activity	good activity	–
CCCn1c(OCC2CC2C)nc2ccc(Br)cc2c1=O (centres unmarked) [Compound 1.22, 6-bromo-2-(2-methylcyclopropylmethoxy)-3-n-propyl-3H-quinazoline-4-one]	good to excellent activity	good to excellent activity	good activity	49 to 51
